# Assay results: patent US20240115597A1, “METHOD FOR TREATING AND/OR PREVENTING HEARING LOSS BY USING TOLL-LIKE RECEPTOR 7 AND/OR 9 ANTAGONIST” (Kaohsiung Chang Gung Memorial Hospital, priority 2022, published 2024)
# Entries after “also recorded” stand apart in the source; their conditions may differ.
# Experiments:
# [1] = test system: cochlear cytokines and chemokines; assay: Quantitative real-time RT-PCR of cochlear cytokine and chemokine gene expression after noise; assay type: in vivo, mice; settings: one day after systemic (intraperitoneal) chloroquine treatment; noise exposure; normalized to Actb
# Description: (§1) The animal models used in this example and the following examples are as follows. Male CBA/CaJ mice at 4-6 weeks of age were purchased from National Laboratory Animal Center in Taiwan. The mice accessed to water and a regular mouse diet, and were kept at 22±1° C. under a standard 12h:12h light-dark cycle to acclimate for one week before the experiments. The lights were on from 5:00 to 17:00).
# (§2) The experimental procedure of noise exposure is as follows. Three awake CBA/CaJ mice in the same group were placed in a sound chamber, with one mouse per stainless steel cage. The sound chamber was fitted with a loudspeaker, driven by an amplifier connected to a CD player. Broadband noise (BBN) with a frequency of 2 to 20 kHz was compiled onto a CD and equalized with software. […]
# To test if TLR7/9 antagonist could affect the expression of cochlear cytokines and chemokines after noise, we used quantitative real-time reverse transcription polymerase chain reaction (quantitative real-time RT-PCR) to analyze gene expression in the cochlea one day after systemic chloroquine treatment.
# The experimental procedure of RNA isolation and quantitative real-time RT-PCR is as follows. […] Real-time quantitative PCR was performed in an ABI 7500 Fast Real-Time System (Applied Biosystems). […]
# outer hair cell (OHC) = assay: Outer hair cell (OHC) counts in cochlear surface preparations after 106-dB noise; assay type: in vivo, mice; settings: basal segment, chloroquine 50 mg/kg intraperitoneal
# Description: as §1, §2
# To examine if TLR7/9 antagonist could protect the OHC from acoustic trauma, we counted the OHCs in surface preparations after 106-dB noise exposure. […]
# The experimental procedure of immunocytochemistry for outer hair cell (OHC) counts is as follows. […] Cell populations in the phalloidin-stained stereociliary bundles and circumferential F-actin rings around the cuticular plate of the OHCs were evaluated using an epifluorescence microscope. […] Each successive 0.25 mm field was evaluated beginning from the apex to the base for counting the number of OHCs. […]
# CBA/CaJ mice [2] = assay: Noise-induced reduction of ABR wave I amplitude; assay type: in vivo; settings: 16 kHz; 106-dB noise; chloroquine 50 mg/kg intraperitoneal, ODN 2088 5 mg/kg subcutaneous
# Description: as §1
# The experimental procedure of noise exposure is as follows. Three awake CBA/CaJ mice in the same group were placed in a sound chamber, with one mouse per stainless steel cage. The sound chamber was fitted with a loudspeaker, driven by an amplifier connected to a CD player. […]
# (§3) The experimental procedure of auditory brainstem response (ABR) is as follows. […] Body temperature was monitored and maintained near 37° C. with a heating pad. […] ABRs were measured at 8, 16, and 32 kHz. […] Thresholds were determined for each frequency by reducing the intensity in 10 dB increments and then in 5 dB steps near the threshold until no organized responses were detected. […] ABR thresholds were detected at before noise exposure and one week/three week after noise exposure. […]
# To test if TLR7/9 antagonists could protect the auditory nerve against acoustic trauma, we measured the ABR wave I amplitudes at 16 kHz, which is one of the most sensitive frequencies of the auditory spectrum in the mice.
# NF-κB = NF-κB immunostaining of the cochlea after noise; assay type: in vivo, mice; settings: lateral wall, middle-basal segment; 106-dB noise
# Description: as §1
# (§4) The experimental procedure of noise exposure is as follows. Three awake CBA/CaJ mice in the same group were placed in a sound chamber, with one mouse per stainless steel cage. The sound chamber was fitted with a loudspeaker, driven by an amplifier connected to a CD player. Broadband noise (BBN) with a frequency of 2 to 20 kHz was compiled onto a CD and equalized with software. Sound levels were calibrated with a sound level meter (type 2250; Brtiel & Kja✓r) fitted with a microphone (type 4189; Brtiel & Kja✓r, Na✓rum, Denmark) at the locations of each cage within the sound chamber, before and after exposure to the noise. The control (sham) group was put in the same cage without exposure to noise for 2 hours. An intensity of 106 dB broadband noise was used to produce permanent threshold shifts.
# (§5) Chloroquine was dissolved in saline. ODN 2088 was dissolved in endotoxin-free water. The control group was endotoxin-free water. […]
# CBA/CaJ mice [3] = assay: Noise-induced auditory brainstem response (ABR) threshold shift; assay type: in vivo; settings: 3 weeks after 106-dB noise exposure, chloroquine 50 mg/kg intraperitoneal, ODN 2088 5 mg/kg subcutaneous, four treatments
# Description: as §1, §2, §3
# Iba-1±cells = assay: Iba-1± cell (macrophage) infiltration into the cochlea after noise; assay type: in vivo, mice
# Description: as §1, §4, §5
structure (smiles),measurement,setting,value
CCN(CC)CCCC(C)Nc1ccnc2cc(Cl)ccc12 (stereo not drawn) [chloroquine],"mRNA expression of Tlr9, MyD88, Il-1β, Tnf-α and Irf-7 in the cochlea",[1],decreases noise-induced elevation of cochlear cytokines and chemokines expression; also recorded: attenuated these changes
same,"noise-induced elevation of Ccl2, Ccl4 and Ccl12 expression in the cochlea",[1],decreases noise-induced elevation of cochlear cytokines and chemokines expression; also recorded: decreased the noise-induced elevation
same,percentage of OHC loss,outer hair cell (OHC),decreases noise-induced outer hair cell (OHC) loss; also recorded: attenuated the percentage of OHC loss over this area
same,noise-induced decrease in ABR wave I amplitude,CBA/CaJ mice [2],attenuate 106-dB noise-induced wave I amplitude reduction at 16 kHz; also recorded: attenuated the noise-induced decrease in the amplitudes
same,immunostaining of NF-κB in the cochlea,NF-κB,attenuates noise-induced nuclear factor kappa-B (NF-κB) immunostaining of the cochlea; also recorded: decreased the immunostaining of NF-κB
same,noise-induced ABR threshold shift,CBA/CaJ mice [3],attenuate 106-dB noise-induced auditory threshold shifts
same,noise-induced ABR threshold shift,CBA/CaJ mice [3]; listed as Chloroquine,decreased the noise-induced ABR thresholds shift
same,"number of Iba-1±signals, quantification of immunofluorescence",Iba-1±cells; each segment of the cochlea,reduces the number of Iba-1macrophage infiltration in the cochlea; also recorded: decreases the number of Iba-1signals in each segment of the cochlea
same,"Iba-1±cell infiltration, immunohistochemistry",Iba-1±cells; lower spiral ligament of the cochlea,attenuates noise-induced infiltration of Iba-1macrophages; also recorded: attenuates the increase in Iba-1cell infiltration
